Results on one molecule are retold here after patent publication US20230049917A1, “Pharmaceutical Composition of CASR Modulators and Methods and Uses Thereof” (Lupin Limited, priority 2019, published 2023).

Molecules are shown by their SMILES. “And” between values parts separate entries of the source, which are not always exact repeats. Identical values can stand only once.

Data set [1] in a line: Non-clinical studies: hypocalcaemia at efficacious doses. Type of data set: in vivo.
The subject of data set [2] is iPTH. Nature of the data set: Phase 2 Main Study: iPTH change from baseline in CKD patients with SHPT. Conditions: for iPTH levels reduced from baseline (FIG. 1) / mean percentage suppression in iPTH from baseline, peak, Day 90, 2 to 4 hours post-dose (exploratory analysis) / mean percentage suppression in iPTH from baseline at the end of 90 days / proportion of patients with ≥30% reduction in iPTH from baseline at end of 90 days (responder rate): patients on dialysis. In kind it is in vivo, human. The method, then: A randomized, double-blind, placebo-controlled phase 2 clinical study was conducted to assess the efficacy, pharmacokinetics (PK), pharmacodynamics (PD) and safety of 2-methyl-5-((2R,4S)-2-((((R)-1-(naphthalen-1-yl)ethyl)amino)methyl) chroman yl)benzoic acid, hydrochloride (Compound 3), as a monotherapy in patients with CKD with secondary hyperparathyroidism (SHPT). The patients enrolled in the study were either on dialysis or not on dialysis. Patients could continue taking doses (whether stable dosing or otherwise) of calcium supplements, phosphate binders, vitamin D, vitamin D analogues or a combination thereof for the treatment of SHPT in combination with Compound 3. Patients can take at least one calcium supplement, phosphate binder, vitamin D, vitamin D analogue or a combination thereof concurrently or concomitantly with Compound 3. Dosing for such calcium supplements, phosphate binders, vitamin D, vitamin D analogues or a combination thereof for the treatment of SHPT can be individualized based on patient's iPTH levels, and/or can correlate with doses presently used for the treatment of SHPT.
This was a double-blind, randomized, placebo-controlled, multicenter study with an additional non-randomized open-label arm conducted in patients with secondary hyper-parathyroidism (SHPT) associated with CKD which was further stratified in 2 groups: on dialysis and not on dialysis. The iPTH levels of patients in the “on dialysis” group were in a range of 428.2 pg/ml to 1240.6 pg/ml (mean 857.76 pg/ml) while those in the “not on dialysis” group were in a range of 125.0 pg/ml to 654.7 pg/ml (mean 297.83 pg/ml).
Total 179 patients were enrolled in this study of which 108 patients were on dialysis and 71 were not on dialysis. Patients of on dialysis group were further randomized to 3 subgroups administering 10 mg Compound 3, 25 mg Compound 3, or placebo once daily in a double blind fashion enrolling 35 patients, 36 patients and 18 patients, respectively, and an additional non-randomized open label arm enrolling 19 patients receiving 20 mg Compound 3, twice daily. A total of 98 patients completed the study. 10 patients discontinued the study. None of the patients discontinued the study due to adverse drug reactions.
Patients on not on dialysis group were randomized to two treatment subgroups administering 10 mg Compound 3, or placebo once daily in a double blind fashion enrolling 37 and 18 patients, respectively, and an additional non-randomized open label arm enrolling 16 patients receiving 5 mg Compound 3, twice daily. 4 patients discontinued the study. None of the patients discontinued the study due to adverse drug reactions.
The efficacy, PK, PD and safety of Compound 3, as a monotherapy in patients with CKD with secondary hyperparathyroidism (SHPT), were assessed. One objective of the study was to evaluate the mean percentage change in iPTH from baseline at the end of 90 days. Yet another objective of the study was to determine the proportion of patients with >30% reduction in iPTH from baseline at the end of 90 days. Yet another objective of the study was to ensure safety of patients.
For efficacy assessments, the primary efficacy assessment included measurement of iPTH and the exploratory efficacy assessment included measurement of parathyroid gland size at scheduled time points. Blood samples for measurement of iPTH were collected during Day −30 to Day −1 (Screening Period); Day 1; Day 8+/−3 days; Day 15+/−3 days; Day 30+/−3 days; Day 60+/−3 days; and Day 90+/−3 days (EOT/Early Discontinuations). Two blood samples were collected during Screening Period and higher of these 2 values was considered as a baseline value. During treatment period of the Main Study, blood samples were collected on Day 30, Day 60, and Day 90. If the blood sample collected on Day 90 could not be analysed for any reason, the second blood sample had to be collected within 3 days of end of treatment (EOT). […]

Data set [3] is described as follows: Phase 2 Main Study: phosphate change from baseline. Type of data set: in vivo, human. The method, then: For PK-PD assessments, blood samples for PK assessments were collected at scheduled time points (Screening Period; Day 1 (Pre-dose and post-dose); Day 2; Day 8 EOT (Pre-dose and post-dose); Day 9; Day 10; and Day 15+/−3 days (Follow-up visit)) in the PK-PD study. The PD profiling was done in parallel to the PK profiling in the PK-PD study. Blood samples (approximately 1×4 mL) for PK assessments were collected by venipuncture or cannulation at the selected time points into tubes containing dipotassium ethylenediaminetetraacetic acid (K2EDTA) anti-coagulant. The collected blood sample were kept on ice until centrifugation and later centrifuged at 4 °C at 5000 rpm for 10 minutes and the separated plasma collected in 2 tubes/aliquots. The plasma samples were stored at −20 °C or lower at the clinical centre until they were shipped for analysis. Blood samples (approximately 1×8 mL) for PD assessments were collected in PK-PD study and Main Study at selected time points The Main Study's selected time points were Screening Period; Day 1; Day 8+/−3 days; Day 15+/−3 days; Day 30+/−3 days; Day 60+/−3 days; and Day 90+/−3 days (EOT/Early Discontinuations). Blood samples (approximately 1×5 mL) for exploratory PD assessments for PK-PD study and Main Study were collected at selected time points.
Change from baseline to all measured and relevant time points was calculated. The baseline value for this study was the higher of the 2 values obtained during screening period for serum iPTH concentration, corrected total serum calcium and phosphorous. The baseline value for all other parameters was the last valid and planned visit value prior to first dose of IP in the study. For continuous data, summary statistics included the number, arithmetic mean, standard deviation (SD), median, minimum and maximum. For categorical data, frequency and percentage were presented.

Where [4] appears, read: patients not on dialysis, 10 mg QD.

Take `Cc1ccc([C@@H]2C[C@H](CN[C@H](C)c3cccc4ccccc34)Oc3ccccc32)cc1C(=O)O.Cl` [Compound 3, 2-methyl-5-((2R,4S)-2-((((R)-1-(naphthalen-1-yl)ethyl)amino)methyl)chroman-4-yl)benzoic acid hydrochloride]: the hypocalcaemia result in data set [1] is reported as “No hypocalcaemia”. The “iPTH levels reduced from baseline (FIG. 2)” value was “more than 30%” in data set [2] (patients not on dialysis, 5 mg BID) and “more than 30%” in data set [2] (setting [4]). Besides, the “mean percentage suppression in iPTH from baseline at the end of 90 days (2 to 4 hours post-dose), exploratory analysis” value is −55.03% in data set [2] (patients not on dialysis, 5 mg BID open label arm) and −48.07% in data set [2] (setting [4]). In addition, the “mean percentage suppression in iPTH versus Placebo at the end of Day 90” value in data set [2] (patients not on dialysis, 10 mg QD and 5 mg BID) is listed as “No significant difference”. In addition, in data set [2] (patients not on dialysis, QD or BID dosing regimen, 10 mg per day), the “difference in proportion of patients who achieved ≥30% reduction in iPTH from baseline at the end of 90 days versus Placebo” value is on record as “not significant”. The results for the “iPTH levels reduced from baseline (FIG. 1)” value in data set [2] (10 mg QD), in data set [2] (20 mg BID) and in data set [2] (25 mg QD) were 25.65%, “more than 30%” and “more than 30%”, respectively. In addition, the “mean percentage suppression in iPTH from baseline, peak, Day 90, 2 to 4 hours post-dose (exploratory analysis)” value is on record as −79.54% in data set [2] (10 mg QD), −93.02% in data set [2] (20 mg BID open label arm) and −85.79% in data set [2] (25 mg QD). The “mean percentage suppression in iPTH from baseline at the end of 90 days” value in data set [2] (10 mg QD, per protocol) is given as −25.65%; in data set [2] (20 mg BID open label arm), −82.42%; in data set [2] (25 mg QD, per protocol), −56.65%. Moreover, the “proportion of patients with ≥30% reduction in iPTH from baseline at end of 90 days (responder rate)” value in data set [2] (20 mg BID, hydrochloride) was 93% and ~90%; in data set [2] (25 mg QD) it was “around 80%”. The “phosphorous levels due to administration over a period of 90 days” value in data set [3] (CKD patients not on dialysis) and in data set [3] (CKD patients on dialysis) was “no increase” in each case. Also, the “difference in mean percentage change in phosphate from baseline at the end of 90 days versus Placebo” value in data set [3] (patients not on dialysis, 10 mg and 5 mg arms) is on record as “not significant”; in data set [3] (patients on dialysis, 10 mg, 20 mg and 25 mg arms), “not significant”.
